According to patent US20050267073A1, “Triheterocyclic compounds, compositions, and methods for treating cancer or viral diseases” (priority 2004, published 2005):
Where a name gives a salt, the structure may show the parent alone. Read-outs that look alike come from different tables or passages of the source.

Tests used:
[1] = test system: C33A cervical carcinoma cells; test: cells; type: cell-based; conditions: C-33A, Cervix; ATP levels 72 h post-treatment compared to untreated cells; read-out: IC50 of Compound 1 tartrate
Description: (§1) […]. […] […]. The total dimethyl sulfoxide on the cells was 1%. […] […].
(§2) As depicted in Table 4, these compounds were efficient in decreasing cellular ATP levels in HI 299 and C33A cancer cell lines. Nevertheless, these compounds are believed to have utility in the in vivo methods of the invention, i.e., treatment and prevention of cancer and viral infections, respectively. It should be noted that, although this cell-based assay is believed to be indicative of anti-oncogenic activity in vivo, it is not the only useful assay for evaluating the anti-oncogenic activity of Triheterocyclic Compounds of the invention. In addition, the anti-viral and other biological activity of compounds of the invention can be determined and evaluated in other assay systems known to the skilled artisan.

[2] = test system: H1299 human non-small cell lung cancer cells; test: Cell viability by cellular ATP levels (ViaLight), H1299 cells; type: cell-based; conditions: H1299, NSCLC; ATP levels 72 h post-treatment compared to untreated cells; read-out: IC50 of Compound 1 tartrate
Description: as §1, §2

[3] = test system: A549 human lung carcinoma cell line; conditions: read-out: IC50 of Compound 1 tartrate; A549, NSCLC; ATP levels 72 h post-treatment compared to untreated cells
Method: (§3) The cells lines were plated in 96-well microtiter plates (PerkinElmer Life Sciences Inc, Boston, Mass., USA) at a confluency that allowed them to reach confluence after 4 days of growth. […] The total dimethyl sulfoxide on the cells was 1%. After 3 days of incubation the ATP levels in the cells were quantified using a luminescent ViaLight detection system (Bio-Whittaker, MD, USA).

[4] = test system: ADR-RES human breast cancer cell line; conditions: read-out: IC50 of Compound 1 tartrate; NCI/ADR-RES, Breast (Mutli-drug resistant); ATP levels 72 h post-treatment compared to untreated cells
Method: as §3

[5] = test system: B16-F1 mouse melanoma cell line; conditions: read-out: IC50 of Compound 1 tartrate; B16-F1, Murine Melanoma; ATP levels 72 h post-treatment compared to untreated cells
Method: as §3

[6] = test system: H460 non-small cell lung cancer cell line; conditions: read-out: IC50 of Compound 1 tartrate; H460, NSCLC; ATP levels 72 h post-treatment compared to untreated cells
Method: as §3

[7] = test system: HMEC normal mammary epithelial cells
Method: as §3

[8] = test system: MCF-7 human breast cancer cell line; conditions: read-out: IC50 of Compound 1 tartrate; MCF-7, Breast; ATP levels 72 h post-treatment compared to untreated cells
Method: as §3

[9] = test system: OVCAR-3 human ovarian carcinoma cell line; conditions: read-out: IC50 of Compound 1 tartrate; OVCAR-3, Ovary; ATP levels 72 h post-treatment compared to untreated cells
Method: as §3

[10] = test system: PC-3 human prostatic carcinoma cell line; conditions: read-out: IC50 of Compound 1 tartrate; PC-3, Prostate; ATP levels 72 h post-treatment compared to untreated cells
Method: as §3

[11] = test system: SW-480 human adenocarcinoma cell line; conditions: read-out: IC50 of Compound 1 tartrate; SW-480, Colorectal; ATP levels 72 h post-treatment compared to untreated cells
Method: as §3

[12] = test system: cancer cell lines H1299 and C33A, normal cell lines HMEC and MRC-5; conditions: 0.5 μM, 72 hours after treatment; H1299 and C33A vs HMEC and MRC-5; FIG. 1
Method: as §3

[13] = test system: C33A human cervical cancer cells; conditions: for reduction in tumor growth compared to vehicle only: 4.5 mg/kg IV once a day for five days, C33A tumors in SCID mice, FIG. 3; for T/C value: 4.5 mg/kg IV once daily for five days
Method: The resultant mice are a model for a human having cervical cancer.
The C33A human cervical cancer cells were maintained in RPMI (Hyclone, Utah, USA) supplemented with 10% inactivated fetal bovine serum (Bio-Whittaker, MD, USA) and 1% penicillin-streptomycin-L-Glutamine (Gibco, N.Y., USA), under 5% CO2 at 37° C., and passaged twice a week. The cells were grown at a confluency lower than 70% and than collected with Trypsin (Bio-Whittaker, MD, USA). The cells were then centrifuged and washed twice using phosphate buffered saline solution (PBS) and resuspended in PBS at 2×10^6 cells per 100 μl.
C33A cells were injected subcutaneously into the flank of female CB17 SCID/SCID mice. Each mouse was inoculated with a suspension of 2×10^6 tumors cells per 150 μl on day zero.
Treatments started on day fourteen after C33A cells transplantation. […] The negative control group was treated with vehicle alone. […] The positive control group was treated once every 3 days for five times with cisplatin (Sigma, St. Louis, Mo., USA) at a dose of 4 mg/kg. Cisplatin was formulated in PBS on each day of the injection and was administered IP in an injection volume of 80 μl.
The mice were weighed and the tumors measured on day 13 and every 2 days after treatment commenced. Observation continued for 40 days after initial tumor implantation. The changes in body weight and in the calculated tumor volume were plotted.

[14] = type: in vivo, CB17 SCID/SCID mice; conditions: 4.5 mg/kg IV once daily for five days, FIG. 2
Method: Treatments started on day fourteen after C33A cells transplantation. […]. The negative control group was treated with vehicle alone. […].
Observation continued for 40 days after initial tumor implantation.

[15] = Shelf stability (precipitation) of formulation; type: physicochemical; conditions: 0.6 mg/mL in 9.6% polyethylene glycol 300, 0.4% polysorbate 20 and 5% dextrose; listed as Compound 1 Tartrate Salt
Method: To determine whether a compound is soluble in a solution, the solution was filtered on 0.2 μM polytetrafluoroethylene filters (Whatman Inc. Clifton, N.J., USA) and the compound concentration in the filtrate was measured by LC/MS and compared to the expected concentration.

`COC1=CC(c2cc3ccccc3[nH]2)=N/C1=C\c1[nH]c(C)cc1C` [Compound 1 tartrate] showed an IC50 [1] of 200 nM, an IC50 [2] of 500 nM and an IC50 [3] of 400 nM. It also gave an IC50 [4] of 400 nM, an IC50 [5] of 60 nM and an IC50 [6] of 300 nM. The IC50 ([7]; read-out: IC50 of Compound 1 tartrate, HMEC, Normal Breast, ATP levels 72 h post-treatment compared to untreated cells) was 4 µM, the “efficacy in decreasing cellular ATP levels in cancer cell lines versus HMEC normal cell line” value ([7]; ten cancer cell lines vs HMEC, various concentrations) was “greater efficacy in decreasing cellular ATP levels” and the IC50 [8] was 600 nM. For the same molecule, the IC50 [9] was 200 nM, the IC50 [10] was 200 nM and the IC50 [11] was 200 nM. For the same molecule, the “lowering of ATP levels in cancer cell lines compared with normal cell lines” value [12] was “significantly more effective at lowering ATP levels”, the “reduction in tumor growth compared to vehicle only” value [13] was “statistically significant (p<0.0001) reduction in tumor growth” and the “reduction in tumor growth compared to vehicle only” value ([13]; listed as Compound 1 Tartrate) was “significantly reduces the human cervical tumors”. The T/C value ([13]; day 36) was 14%, the T/C value ([13]; day 39) was 22% and the “average tumor size versus vehicle only” value ([13]; days 36 and 39, 4.5 mg/kg) was “significantly (p<0.001) smaller tumors”. For the same molecule, the body weight change [14] was “no significant changes in body weight”, the body weight change ([14]; listed as Compound 1 Tartrate) was “non-significant weight loss” and the precipitation of formulation [15] was “tends to precipitate one hour after its preparation”.
